Experiments:
[1] = tested on: Botryotinia fuckeliana (Botrytis cinerea); assay: Botryotinia fuckeliana (Botrytis cinerea) / liquid culture (gray mould); format: cell-based; details: 72 h, 200 ppm in the formulation, inhibition of growth determined photometrically 3-4 days after application, compared to untreated control, read-out: disease control
Protocol: (§1) Botryotinia fuckeliana (Botrytis cinerea)/Liquid Culture (Gray Mould) Conidia of the fungus from cryogenic storage are directly mixed into nutrient broth (Vogels broth). After placing a (DMSO) solution of test compound into a microtiter plate (96-well format), the nutrient broth containing the fungal spores is added. The test plates are incubated at 24° C. and the inhibition of growth is determined photometrically 3-4 days after application.

[2] = tested on: Glomerella lagenarium (Colletotrichum lagenarium); assay: Glomerella lagenarium (Colletotrichum lagenarium) / liquid culture (anthracnose); format: cell-based; details: Colletotrichum orbiculare, 72 h, 200 ppm in the formulation, inhibition of growth measured photometrically 3 to 4 days after application, compared to untreated control, read-out: disease control
Protocol: as §1, with “Glomerella lagenarium (Colletotrichum lagenarium)/Liquid” for “Botryotinia fuckeliana (Botrytis cinerea)/Liquid”, “(Anthracnose)” for “(Gray Mould)”, “(PDB potato dextrose” for “(Vogels”, “measured” for “determined”, “3 to 4” for “3-4”

[3] = tested on: Monographella nivalis (Microdochium nivale); assay: Monographella nivalis (Microdochium nivale) / liquid culture (foot rot cereals); format: cell-based; details: 96 h, 200 ppm in the formulation, inhibition of growth determined photometrically 4-5 days after application, compared to untreated control, read-out: disease control
Protocol: as §1, with “Monographella nivalis (Microdochium nivale)/Liquid” for “Botryotinia fuckeliana (Botrytis cinerea)/Liquid”, “(Foot Rot Cereals)” for “(Gray Mould)”, “(PDB potato dextrose” for “(Vogels”, “4-5” for “3-4”

[4] = tested on: Mycosphaerella arachidis (Cercospora arachidicola); assay: Mycosphaerella arachidis (Cercospora arachidicola) / liquid culture (early leaf spot); format: cell-based; details: 96 h, 200 ppm in the formulation, inhibition of growth determined photometrically 4-5 days after application, compared to untreated control, read-out: disease control
Protocol: as §1, with “Mycosphaerella arachidis (Cercospora arachidicola)/Liquid” for “Botryotinia fuckeliana (Botrytis cinerea)/Liquid”, “(Early Leaf Spot)” for “(Gray Mould)”, “(PDB potato dextrose” for “(Vogels”, “4-5” for “3-4”

[5] = tested on: Mycosphaerella graminicola (Septoria tritici); assay: Mycosphaerella graminicola (Septoria tritici) / liquid culture (Septoria blotch); format: cell-based; details: Zymoseptoria tritici, 96 h, 200 ppm in the formulation, inhibition of growth determined photometrically 4 to 5 days after application, compared to untreated control, read-out: disease control
Protocol: as §1, with “Mycosphaerella graminicola (Septoria tritici)/Liquid” for “Botryotinia fuckeliana (Botrytis cinerea)/Liquid”, “(Septoria Blotch)” for “(Gray Mould)”, “(PDB potato dextrose” for “(Vogels”, “4 to 5” for “3-4”

[6] = tested on: Phaeosphaeria nodorum (Septoria nodorum); assay: Phaeosphaeria nodorum (Septoria nodorum) / wheat / leaf disc preventative (glume blotch); format: in vivo; details: 200 ppm in the formulation; wheat leaf segments cv. Kanzler; compared to untreated control; 5-7 days after application
Protocol: Phaeosphaeria nodorum (Septoria nodorum)/Wheat/Leaf Disc Preventative (Glume Blotch) Wheat leaf segments cv. Kanzler are placed on agar in a multiwell plate (24-well format) and sprayed with the formulated test compound diluted in water. The leaf disks are inoculated with a spore suspension of the fungus 2 days after application. The inoculated test leaf disks are incubated at 20° C. and 75% rh under a light regime of 12 h light/12 h darkness in a climate cabinet and the activity of a compound is assessed as percent disease control compared to untreated when an appropriate level of disease damage appears in untreated check leaf disks (5-7 days after application).

[7] = tested on: Blumeria graminis f. Sp. tritici (Erysiphe graminis f. Sp. tritici); assay: Blumeria graminis f. sp. tritici / wheat / leaf disc preventative (powdery mildew on wheat); format: in vivo; details: 200 ppm in the formulation; wheat leaf segments cv. Kanzler; compared to untreated control; 6-8 days after application
Text: Blumeria graminis f. Sp. tritici (Erysiphe graminis f. Sp. tritici)/Wheat/Leaf Disc Preventative (Powdery Mildew on Wheat) Wheat leaf segments cv. Kanzler are placed on agar in a multiwell plate (24-well format) and sprayed with the test compound formulated with DMSO and Tween20 and diluted in water. The leaf disks are inoculated by shaking powdery mildew infected plants above the test plates 1 day after application.

Structure (SMILES) | inhibition of growth at 200 ppm [1] | inhibition of growth at 200 ppm [2] | inhibition of growth at 200 ppm [3] | inhibition of growth at 200 ppm [4] | inhibition of growth at 200 ppm [5] | disease control [6] | disease control [7]
COc1ccnc(C(=O)N[C@@H](C)C(=O)OC2CCC2(c2ccc(Cl)cc2)C2CC2)c1O (stereo partly drawn) [I.as.02, [2-(4-chlorophenyl)-2-cyclopropyl-cyclobutyl] (2S)-2-[(3-hydroxy-4-methoxy-pyridine-2-carbonyl)amino]propanoate] | ≥ 80% | ≥ 80% | ≥ 80% | ≥ 80% | ≥ 80% | – | –
COc1ccnc(C(=O)N[C@@H](C)C(=O)OC2CCC2(Cc2ccccc2)c2ccc(F)cc2)c1O (some centres unmarked) [I.au02] | ≥ 80% | ≥ 80% | ≥ 80% | ≥ 80% | ≥ 80% | – | –
COc1ccnc(C(=O)N[C@@H](C)C(=O)OC2CCC2c2ccc(F)cc2)c1O (stereo partly drawn) [I.e.02, [2-(4-fluorophenyl)cyclobutyl] (2S)-2-[(3-hydroxy-4-methoxy-pyridine-2-carbonyl)amino]propanoate] | ≥ 80% | ≥ 80% | ≥ 80% | ≥ 80% | ≥ 80% | – | –
COc1ccnc(C(=O)N[C@@H](C)C(=O)OC2CCC2c2ccc(Cl)cc2)c1O (stereo partly drawn) [I.f.02, [2-(4-chlorophenyl)cyclobutyl] (2S)-2-[(3-hydroxy-4-methoxy-pyridine-2-carbonyl)amino]propanoate] | ≥ 80% | ≥ 80% | ≥ 80% | ≥ 80% | ≥ 80% | – | –
COc1ccnc(C(=O)N[C@@H](C)C(=O)OC2CCC2c2ccc(F)cc2F)c1O (stereo partly drawn) [I.h.02, [2-(2,4-difluorophenyl)cyclobutyl] (2S)-2-[(3-hydroxy-4-methoxy-pyridine-2-carbonyl)amino]propanoate] | ≥ 80% | ≥ 80% | ≥ 80% | ≥ 80% | ≥ 80% | – | –
COc1ccnc(C(=O)N[C@@H](C)C(=O)OC2CCC2c2ccc(Cl)cc2Cl)c1O (stereo partly drawn) [I.i.02, [2-(2,4-dichlorophenyl)cyclobutyl] (2S)-2-[(3-hydroxy-4-methoxy-pyridine-2-carbonyl)amino]propanoate] | ≥ 80% | ≥ 80% | ≥ 80% | ≥ 80% | ≥ 80% | – | –
COc1ccnc(C(=O)N[C@@H](C)C(=O)OC2CCC2(c2ccccc2)c2ccccc2)c1O (stereo partly drawn) [I.k.02, (2,2-diphenyl cyclobutyl) (2S)-2-[(3-hydroxy-4-methoxy-pyridine-2-carbonyl)amino]propanoate] | ≥ 80% | ≥ 80% | ≥ 80% | ≥ 80% | ≥ 80% | – | –
COc1ccnc(C(=O)N[C@@H](C)C(=O)OC2CCC2(c2ccccc2C)c2ccccc2C)c1O (stereo partly drawn) [I.o.02, [2,2-bis(o-tolyl)cyclobutyl] (2S)-2-[(3-hydroxy-4-methoxy-pyridine-2-carbonyl)amino]propanoate] | – | ≥ 80% | ≥ 80% | ≥ 80% | ≥ 80% | at least 80% | –
COc1cccc(C2(c3cccc(OC)c3)CCC2OC(=O)[C@H](C)NC(=O)c2nccc(OC)c2O)c1 (some centres unmarked) [I.t.02] | ≥ 80% | ≥ 80% | ≥ 80% | ≥ 80% | ≥ 80% | – | at least 80%
COc1ccnc(C(=O)N[C@@H](C)C(=O)OC2CCC2(c2ccc(F)cc2)c2ccc(F)cc2)c1O (stereo partly drawn) [I.u.02, [2,2-bis(4-fluorophenyl)cyclobutyl] (2S)-2-[(3-hydroxy-4-methoxy-pyridine-2-carbonyl)amino]propanoate] | ≥ 80% | ≥ 80% | ≥ 80% | ≥ 80% | ≥ 80% | – | –
COc1ccnc(C(=O)N[C@@H](C)C(=O)OC2CCC2(c2ccc(F)cc2)c2ccc(F)cc2)c1OC(C)=O (stereo partly drawn) [I.u.14, [2,2-bis(4-fluorophenyl)cyclobutyl] (2S)-2-[(3-acetoxy-4-methoxy-pyridine-2-carbonyl)amino]propanoate] | ≥ 80% | ≥ 80% | ≥ 80% | ≥ 80% | ≥ 80% | – | –
